{"source": "patent US11642388B2", "about": "“Antidepressant compound preparation and preparation method thereof” (Chenland Nutritionals Inc., priority 2020, dated 2023)", "assay_type_in_all_cases": "in vivo", "key": {"[1]": {"tested_on": "SPF grade male C57BL/6J mice", "assay": "Mouse open field test", "details": "3.33 mg/kg by gavage daily for one month; 6 minutes; x ± SE", "quoted_text": "The test is performed in an open field box with a length of 50 cm, a width of 50 cm, and a depth of 50 cm. The bottom surface of the open field box is equally divided into 9 squares, the area right in the middle is a central area, and the remaining areas are peripheral areas. The bottom and four sides of the open field box are all white. The test is performed in a quiet and weak red light environment. […] The total movement distance of the mice, the movement distance in the central area and the number of standing-uprights are recorded."}, "[2]": {"tested_on": "SPF grade male C57BL/6J mice", "assay": "Mouse forced swimming test (Embodiment 9)", "details": "3.33 mg/kg by gavage daily for one month, 5 minutes formal test, x ± SE", "protocol": "(§1) 72 SPF grade male C57BL/6J mice which are 20±2 g in weight are selected. 6 mice are kept in each cage, free to forage and drink, and kept in a room with controlled light, temperature and humidity: the temperature is 21° C.±2° C., the humidity is 50%±10%, and the light and dark cycle is 12 hours/12 hours (light on at 20:00, light off at 8:00). All animal experiments are carried out in accordance with the guidelines on laboratory animal welfare and use issued by NIH.\n(§2) After arrival, the mice are allowed to acclimate for one week before entering experiments.\n(§3) The mice in the normal group are given the same volume of purified water by gavage, and the gavage doses for the mice in other groups are shown in the result tables. The mice are treated by gavage at a fixed time (9:00) every morning with a gavage volume of 0.1 mL·10 g^−1, and the administration is lasted for one month. A behavioral test is performed 1 hour after the last gavage.\nWhen forced to swim, all the animals are respectively put in a plexiglass cylinder with a water temperature of 23° C.±1° C. and a water depth of 20 cm. After 15 minutes, the animals are transferred to a dry environment with a temperature of 30° C. and kept for 30 minutes (pretest). After 24 hours, the mice are put into the plexiglass cylinder again and kept for 5 minutes (formal test). A video camera is used during the test for recording. […]"}, "[3]": {"tested_on": "SPF grade male C57BL/6J mice", "assay": "Mouse tail suspension test", "details": "3.33 mg/kg by gavage daily for one month, last 4 minutes of 6 minutes, x ± SE", "protocol": "as §1, §2, §3\nIn the tail suspension test, medical tape is used to suspend each mouse at ⅓ of the tail tip on a tail suspension device. The mice are suspended vertically with the heads facing camera lens, and are about 30 cm above the ground. The immobility time of each group of mice in the tail suspension test is recorded by a video camera for 6 minutes, and the tail suspension immobility time of the mice is calculated according to the last 4 minutes. […]"}}}
{"smiles": "CNCCC(Oc1ccc(C(F)(F)F)cc1)c1ccccc1", "note": "(stereo not drawn) [Fluoxetine, fluoxetine]", "values": [{"measurement": "Number of standing-uprights", "setting": "[1]", "value": "29.20 ± 2.133"}, {"measurement": "Total movement distance", "setting": "[1]", "value": "18435 ± 950.6", "unit": "mm"}, {"measurement": "Number of floating immobilities", "setting": "[2]", "value": "54.64 ± 2.704"}, {"measurement": "Number of floating immobilities", "setting": "[2]; listed as fluoxetine", "value": "significantly lower"}, {"measurement": "Tail suspension immobility time", "setting": "[3]", "value": "59.62 ± 6.270", "unit": "s"}, {"measurement": "Tail suspension immobility time", "setting": "[3]; listed as fluoxetine", "value": "significantly shorter"}]}
